Measurements from PubChem BioAssay (NCI).
“And” between values parts separate entries of the source, which are not always exact repeats. Identical values can stand only once.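 1) Cells in 96-well plates. 2) Compound, 48 h, 5 concentrations. 3) Linear interpolation between surrounding doses. 4) Unreached endpoint = highest concentration. Here, GI50 denotes the concentration required for 50% inhibition of growth. The concentration for full growth arrest is given as TGI.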

The compounds below were run on PC-3 prostate (assay: DTP human tumour cell line panel, 48 h).

Structure (SMILES)	GI50	TGI
COc1ccc(CN2C(=O)/C(=C\C(=O)c3ccc(OCCN4CCCCC4)cc3)c3ccccc32)cc1	2.7 µM	5.55 µM
CCC(C)n1ncn(-c2ccc(N3CCN(c4ccc(OCC5COC(Cn6cncn6)(c6ccc(Cl)cc6Cl)O5)cc4)CC3)cc2)c1=O (stereo not drawn)	3.96 µM	> 100 µM
NC(=O)NC1C(c2ccccc2)=C1c1ccccc1	–	39.4 µM
O=C(CNc1ccc(Cl)cc1)Nc1ccc(-c2nc3ccccc3s2)cc1	1.85 µM	4.41 µM
CCCCCCCCCCCCOC1C(C(COC2OC(C3COC(C)(C)O3)C3OC(C)(C)OC23)NC(=O)Nc2ccc(C(=O)O)cc2)OC2OC(C)(C)OC21 (stereo not drawn)	2.6 µM	7.58 µM
CCN(CC)CCC(CNc1ccnc2cc(Cl)ccc12)c1ccc(OC)cc1 (stereo not drawn)	19.5 µM and 9.85 µM	76.3 µM and > 100 µM
C=C1C(=O)OC2CCN3CC=C(COC(=O)C(C)(O)C4(CO4)C1C)C23 (stereo not drawn)	–	> 100 µM
CS(=O)(=O)Nc1ccc2c(c1)oc(=O)c1ccccc12	–	> 100 µM

What follows are compounds tested on SN12C renal (assay: DTP human tumour cell line panel, 48 h).

Structure (SMILES)	TGI	GI50
C=COCCCOc1ccccc1	> 100 µM	–
COc1cc2nc(-c3ccc(Cl)cc3)cc(OCCCN3CCCCC3)c2cc1OC	> 100 µM	0.946 µM
C=C(c1nc2ccc(Cl)cc2[nH]c1=O)C(O)c1ccc(C(O)C(=O)c2nc3ccc(Cl)cc3[nH]c2=O)cc1 (stereo not drawn)	> 100 µM	–
O=c1c2sc(=S)n(-c3ccc(F)cc3)c2ncn1Cc1ccc(F)cc1F	> 100 µM	> 100 µM
COc1cc(C#CC(=O)OC/C=C/c2ccc3c(c2)OCO3)cc(OC)c1OC	> 100 µM	–
O=C1NC(=O)C(c2cnc3ccccn23)=C1c1cn2c3c(cc(F)cc13)CN(C(=O)N1CCCCC1)CC2	54.6 µM	9.54 µM
Clc1nc2ccccc2nc1CI	15.6 µM	4.15 µM
Cn1nc(N)c2cc([C@@H]3Nc4ccc5[nH]ncc5c4[C@H]4C5CCC(C5)[C@@H]34)ccc21 (stereo partly drawn)	21.2 µM	0.612 µM
O=C(O)C1C2C=CC(O2)C1C(=O)NCc1ccccn1 (stereo not drawn)	> 100 µM	–
O=C(OC(CNc1cc(=O)n(Cc2ccccc2)c(=O)n1Cc1ccccc1)CN1CCCC1)c1ccccc1 (stereo not drawn)	> 100 µM	> 100 µM
CCN(CC)CCCC(CNc1ccnc2cc(Cl)ccc12)c1ccc(Cl)cc1 (stereo not drawn)	4.78 µM and 4.3 µM	1.96 µM and 1.92 µM
CCOC(=O)CCCn1c(SC)nc2[nH]cc(-c3ccccc3)c2c1=O	49.9 µM	17 µM
CCN(CC)CCOc1ccc(-c2nc3cc(Cl)ccc3s2)cc1	4.79 µM	2.04 µM
CNC(=O)N(C)N=NCCCl	> 100 µM	–
CCN1CCN(C(c2ccc(C(F)(F)F)cc2)c2ccc3cccnc3c2O)CC1 (stereo not drawn)	15.3 µM	2.27 µM
CC(C)=CC/C=C(/C)[C@H]1CC[C@]2(C)[C@@H]1CC[C@@H]1[C@@]3(C)CCCNC(C)(C)[C@@H]3CC[C@]12C	5.45 µM	2.3 µM
O=C1c2cccc(NCCCNCCO)c2C(=O)c2cccc(NCCCNCCO)c21	6 µM and 5.31 µM	–
N#CC(=C1C=CC(=NO)C=C1)c1ccccc1	8.41 µM	2.39 µM
CCCCCCCCCCCCCC1=NC(C)(C)CN1C(C)C	2.98 µM	1.59 µM
CC(C)=CCNc1ncnc2c1ncn2C1OC(CO)C(O)C1O (stereo not drawn)	> 408 µM	1.36 µM
COc1ccc(CN2C(=O)/C(=C\C(=O)c3ccc(OCCN4CCCCC4)cc3)c3ccccc32)cc1	3.5 µM	1.74 µM
CCC(C)n1ncn(-c2ccc(N3CCN(c4ccc(OCC5COC(Cn6cncn6)(c6ccc(Cl)cc6Cl)O5)cc4)CC3)cc2)c1=O (stereo not drawn)	> 100 µM	> 100 µM
NC(=O)NC1C(c2ccccc2)=C1c1ccccc1	35.4 µM	–
O=C(CNc1ccc(Cl)cc1)Nc1ccc(-c2nc3ccccc3s2)cc1	10.5 µM	3.07 µM
CCCCCCCCCCCCOC1C(C(COC2OC(C3COC(C)(C)O3)C3OC(C)(C)OC23)NC(=O)Nc2ccc(C(=O)O)cc2)OC2OC(C)(C)OC21 (stereo not drawn)	12.4 µM	3.45 µM
CCN(CC)CCC(CNc1ccnc2cc(Cl)ccc12)c1ccc(OC)cc1 (stereo not drawn)	34.3 µM and 37.8 µM	12.9 µM and 11.4 µM
